{
  "source": "patent US20050054559A1",
  "about": "“Compounds for sustained release of orally delivered drugs” (priority 2000, published 2005)",
  "key": {"[1]": {"assay": "Secretion in bile following oral administration to bile duct-cannulated rats", "type": "in vivo, rat", "details": "single oral dose of (4) 85.25 mg/kg", "experimental": "Sustained release of gabapentin from a prodrug that is subject to enterohepatic recirculation requires that a proportion of the intact prodrug be absorbed after oral administration and subsequently secreted into the bile intact. The potential for enterohepatic recirculation of intact (4) was examined in rats with indwelling bile duct fistulae. […] Bile was collected continuously in aliquots over 24 hours. Plasma and bile samples were frozen at −80° C. until analyzed. Concentrations of (4) or gabapentin in plasma samples were deermined by LC/MS/MS as described in Example 38. Concentrations of intact […] in bile were similarly deermined by LC/MS/MS. Bile (20 μL) was diluted 1:1000 with methanol and injected directly onto the HPLC system. Concentrations of (4) in bile reached a maximum at ˜6 hours post-dosing and were sustained up to 24 hours."}, "IBAT [2]": {"target": "T1, IBAT (Homo sapiens, UniProt Q12908)", "T1 sequence (Q12908 whole entry)": "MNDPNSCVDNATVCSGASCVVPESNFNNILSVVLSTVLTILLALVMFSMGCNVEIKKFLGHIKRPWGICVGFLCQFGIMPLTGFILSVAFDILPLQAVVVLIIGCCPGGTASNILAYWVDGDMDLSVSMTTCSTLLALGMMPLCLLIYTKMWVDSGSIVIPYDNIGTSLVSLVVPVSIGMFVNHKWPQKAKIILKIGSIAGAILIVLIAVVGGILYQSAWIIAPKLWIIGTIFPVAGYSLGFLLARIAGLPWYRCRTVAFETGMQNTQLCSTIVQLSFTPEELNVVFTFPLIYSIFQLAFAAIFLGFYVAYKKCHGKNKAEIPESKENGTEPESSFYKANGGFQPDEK", "assay": "Inhibition of radiolabeled taurocholate uptake in IBAT-transfected CHO cells", "type": "cell-based", "parameters": "expressed in transfected cells; host or cells: CHO cells", "details": "radiolabeled competition assay in transporter-expressing CHO cells", "experimental": "(§1) CHO cells transfected with either the IBAT or LBAT transporter were seeded into 96-well microtiter plates at 100,000 cells/well in 100 μL DMEM containing 10% serum, glutamine and Penstrep. After overnight incubation the media was removed and test compound (25 μL) added at 2× the final desired concentration. Tritiated taurocholate (50,000 CPM/well) was diluted with cold substrate to a final concentration of 5 μM and 25 μL/well of this mixture was added to the plate. After incubating for 1 h at room temperature the solution was removed and the plate washed 4× with PBS at 4° C. 200 μL/well of scintillant is added and the plate then read in a Wallac microbeta counter. The inhibition data is processed by standard methods to calculate an inhibition constant Ki for the test compound."}, "IBAT [3]": {"target": "T1, IBAT", "assay": "Electrogenic transport in Xenopus oocytes expressing IBAT", "type": "cell-based", "source_text": "(§2) RNA preparation: Human IBAT and LBAT Transporter cDNAs were subcloned into a modified pGEM plasmid that contains 5′ and 3′ untranslated sequences from the Xenopus β-actin gene. These sequences increase RNA stability and protein expression. Plasmid cDNA was linearized and used as template for in vitro transcription (Epicentre Technologies transcription kit, 4:1 methylated:non-methylated GTP).\n(§3) Xenopus oocyte isolation. Xenopus laevis frogs were anesthetized by immersion in Tricaine ([…] in deionized water) for 15 min. Oocytes were removed and digested in frog ringer solution (90 mM NaCl, 2 mM KCl, 1 mM MgCl2, 10 mM NaHEPES, pH 7.45, no CaCl2) with 1 mg/mL collagenase (Worthington Type 3) for 80-100 min with shaking. The oocytes were washed 6 times, and the buffer changed to frog ringer solution containing CaCl2 (1.8 mM). Remaining follicle cells were removed if necessary. Cells were incubated at 16° C., and each oocyte injected with […] RNA in […] solution.\nElectrophysiology measurements. Transport currents were measured 2-14 days after injection, using a standard two-electrode electrophysiology set-up (Geneclamp 500 amplifier, Digidata 1320/PCLAMP software and ADInstruments hardware and software were used for signal acquisition). Electrodes ([…]) were microfabricated using a Sutter Instrument puller and filled with 3M KCl. The bath was directly grounded (transporter currents were less than 0.3 μA). Bath flow was controlled by an automated perfusion system (ALA Scientific Instruments, solenoid valves).\nFor transporter pharmacology, oocytes were clamped at −60 to −90 mV, and continuous current measurements acquired using PowerLab Software and an ADInstruments digitizer. Current signals were lowpass filtered at 20 Hz and acquired at 4-8 Hz. All bath and drug-containing solutions were frog ringers solution containing CaCl2. Drugs were applied for 10-30 seconds until the induced current reached a new steady-state level, followed by a control solution until baseline currents returned to levels that preceded drug application. The difference current (baseline subtracted from peak current during drug application) reflected the net movement of charge resulting from electrogenic transport and was directly proportional to tranport rate. Recordings were made from a single oocyte for up to 60 min, enabling 30-40 separate compounds to be tested per oocyte. […]. Using this normalization procedure Vmax (i.e. maximal induced current) for different compounds tested on different oocytes could be compared."}, "LBAT [4]": {"target": "T2, LBAT (Homo sapiens, UniProt Q14973)", "T2 construct": "expressed in transfected cells; host or cells: CHO cells", "assay": "Inhibition of radiolabeled taurocholate uptake in LBAT-transfected CHO cells", "type": "cell-based", "details": "radiolabeled competition assay in transporter-expressing CHO cells", "experimental": "as §1"}, "Cholylglycine Hydrolase": {"target": "Cholylglycine Hydrolase (Clostridium perfringens, UniProt P54965)", "sequence (P54965 whole entry, looked up)": "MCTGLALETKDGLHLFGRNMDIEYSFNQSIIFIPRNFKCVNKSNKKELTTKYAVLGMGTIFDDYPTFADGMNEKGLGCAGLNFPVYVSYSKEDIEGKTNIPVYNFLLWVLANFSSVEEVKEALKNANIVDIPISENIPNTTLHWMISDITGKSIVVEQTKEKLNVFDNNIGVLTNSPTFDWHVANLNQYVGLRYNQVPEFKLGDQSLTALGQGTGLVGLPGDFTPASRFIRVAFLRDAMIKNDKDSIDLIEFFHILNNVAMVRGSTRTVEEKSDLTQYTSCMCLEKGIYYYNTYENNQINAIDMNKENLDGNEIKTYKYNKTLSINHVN", "details": "compared with plasma, liver or intestine"}, "LBAT [5]": {"target": "T3, LBAT (Homo sapiens, UniProt Q14973)", "T3 sequence (Q14973 1-349)": "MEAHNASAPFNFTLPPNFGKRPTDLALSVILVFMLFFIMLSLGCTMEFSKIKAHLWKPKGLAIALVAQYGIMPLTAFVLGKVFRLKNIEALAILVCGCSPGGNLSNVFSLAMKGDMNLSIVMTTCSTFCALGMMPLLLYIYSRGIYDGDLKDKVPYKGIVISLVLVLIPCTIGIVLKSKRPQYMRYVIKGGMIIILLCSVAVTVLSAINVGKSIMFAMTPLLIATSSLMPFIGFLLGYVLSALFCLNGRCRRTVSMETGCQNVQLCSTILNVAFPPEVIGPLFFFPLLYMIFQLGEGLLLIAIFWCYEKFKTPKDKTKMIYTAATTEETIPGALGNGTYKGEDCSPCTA", "assay": "Electrogenic transport in Xenopus oocytes expressing LBAT", "type": "cell-based", "source_text": "as §2, §3\nElectrophysiology measurements. Transport currents were measured 2-14 days after injection, using a standard two-electrode electrophysiology set-up (Geneclamp 500 amplifier, Digidata 1320/PCLAMP software and ADInstruments hardware and software were used for signal acquisition). Electrodes ([…]) were microfabricated using a Sutter Instrument puller and filled with 3M KCl. […]"}},
  "data": [
    {"molecule": "CC(CCC(=O)NCC1(CC(=O)O)CCCCC1)C1CCC2C3C(O)CC4CC(O)CCC4(C)C3CC(O)C12C", "note": "(stereo not shown) [Compound (4)]", "values": [
      {"measurement": "concentrations of (4) in bile sustained up to", "setting": "[1]; bile duct-cannulated rats", "value": "up to 24 hours"},
      {"measurement": "time of maximum concentration of (4) in bile", "setting": "[1]; bile duct-cannulated rats, post-dosing", "value": "~6", "unit": "h"},
      {"measurement": "gabapentin in plasma of bile duct-cannulated rats", "setting": "[1]", "value": "no gabapentin was detected"},
      {"measurement": "IC50", "setting": "IBAT [2]", "value": 36, "unit": "µM"},
      {"measurement": "EC50", "setting": "IBAT [3]", "value": 70, "unit": "µM"},
      {"measurement": "% Max. (GDC)", "setting": "IBAT [3]; relative to glycodeoxycholate", "value": 67, "unit": "%"},
      {"measurement": "IC50", "setting": "LBAT [4]", "value": 8, "unit": "µM"},
      {"measurement": "release of gabapentin catalyzed by cholylglycine hydrolase (in words)", "setting": "Cholylglycine Hydrolase", "value": "Substantially faster release"},
      {"measurement": "EC50", "setting": "LBAT [5]", "value": 19, "unit": "µM"},
      {"measurement": "% Max. (GDC)", "setting": "LBAT [5]; relative to glycodeoxycholate", "value": 38, "unit": "%"}
    ]}
  ]
}
